Measurements from ChEMBL document CHEMBL5241095, “Developments of CRBN-based PROTACs as potential therapeutic agents” (Eur J Med Chem, 2021).
Each block holds one molecule with its values, some of them ahead of it.

Tests used:
[1] = tested on: Huh-7; assay: Antiproliferative activity against human Huh-7 cells assessed as cell growth inhibition; format: functional, cell-based
[2] = tested on: A549; assay: Antiproliferative activity against human A549 cells assessed as cell growth inhibition; format: functional, cell-based
[3] = tested on: HepG2; assay: Antiproliferative activity against human HepG2 cells assessed as cell growth inhibition; format: functional, cell-based
[4] = target: Protein cereblon/Cyclin-dependent kinase 4 (Homo sapiens) (UniProt P11802+Q96SW2); assay: Protac activity at CRBN/CDK4 in human MM1.S cells at […] relative to control; format: cell-based
[5] = target: Protein cereblon/Cyclin-dependent kinase 6 (Homo sapiens) (UniProt Q00534+Q96SW2); assay: Protac activity at CRBN/CDK6 in human MM1.S cells at […] relative to control; format: cell-based
[6] = target: Protein cereblon/Basigin (Homo sapiens, UniProt P35613+Q96SW2); assay: Protac activity at CRBN/CD147 in human SK-MEL-28 cells by Western blotting analysis; format: cell-based
[7] = target: von Hippel-Lindau disease tumor suppressor/Tyrosine-protein kinase BTK (Homo sapiens, UniProt Q06187+P40337); assay: Protac activity at VHL/BTK in human NAMALVA cells incubated for 24 hrs by immunoblotting method; format: cell-based
[8] = target: von Hippel-Lindau disease tumor suppressor/Tyrosine-protein kinase BTK (Homo sapiens, UniProt Q06187+P40337, C481S); assay: Protac activity at VHL/BTK C481S mutant in human NAMALVA cells incubated for 24 hrs by immunoblotting method; format: cell-based
[9] = target: Protein cereblon/Protein deacetylase HDAC6 (Homo sapiens, UniProt Q9UBN7+Q96SW2); assay: Protac activity at CRBN/HDAC6 in human MM1.S cells incubated for 5 hrs by ELISA analysis; format: cell-based
[10] = target: Protein cereblon/Poly [ADP-ribose] polymerase 1 (Homo sapiens) (UniProt P09874+Q96SW2); assay: Protac activity at CRBN/PARP1 in human SW620 cells at lower than 100 nM relative to control; format: cell-based
[11] = target: Protein cereblon/Interleukin-1 receptor-associated kinase 4 (Homo sapiens) (UniProt Q9NWZ3+Q96SW2); assay: Protac activity at CRBN/IRAK4 in HEK293T cells at 405 nM measured after 24 hrs by immunoblotting analysis relative to control; format: cell-based
[12] = target: Protein cereblon (Homo sapiens, UniProt Q96SW2); assay: Binding affinity to CRBN (unknown origin) by Tr-FRET assay
[13] = target: Protein cereblon/Proteasomal ubiquitin receptor ADRM1 (Homo sapiens) (UniProt Q16186+Q96SW2); assay: Protac activity at CRBN/Rpn13 in human MM1.S cells measured after 16 hrs by immunoblotting analysis relative to control; format: cell-based
[14] = Antiproliferative activity against human MCL cells assessed as cell growth inhibition; format: functional, cell-based
[15] = target: T1, Protein cereblon/Tyrosine-protein kinase BTK (Homo sapiens, UniProt Q06187+Q96SW2); assay: Protac activity at CRBN/BTK in human MOLM-14 cells at 0.2 uM relative to control; format: cell-based
[16] = target: Protein cereblon/Indoleamine 2,3-dioxygenase 1 (Homo sapiens) (UniProt P14902+Q96SW2); assay: Protac activity at CRBN/IDO1 in human HeLa cells incubated for 24 hrs by Western blotting analysis relative to control; format: cell-based
[17] = target: T2, Protein cereblon/GTPase KRas (Homo sapiens, UniProt P01116+Q96SW2, G12C); assay: Protac activity at CRBN/KRAS G12C mutant in human MIA PaCa-2 cells incubated for 16 hrs by immunoblotting analysis; format: cell-based
[18] = target: T2, Protein cereblon/GTPase KRas; assay: Protac activity at CRBN/KRAS G12C mutant in human NCI-H358 cells incubated for 16 hrs by immunoblotting analysis; format: cell-based
[19] = target: T1, Protein cereblon/Tyrosine-protein kinase BTK; assay: Protac activity at CRBN/BTK in human Ramos cells incubated for 24 hrs by immunoblotting method; format: cell-based
[20] = tested on: RS4-11; assay: Antiproliferative activity against human RS4-11 cells assessed as cell growth inhibition; format: functional, cell-based
[21] = tested on: MOLM-13; assay: Antiproliferative activity against human MOLM-13 cells assessed as cell growth inhibition; format: functional, cell-based
[22] = tested on: MV4-11; assay: Antiproliferative activity against human MV4-11 cells assessed as cell growth inhibition; format: functional, cell-based

T2 sequence (P01116 whole entry G12C, stated change not applied): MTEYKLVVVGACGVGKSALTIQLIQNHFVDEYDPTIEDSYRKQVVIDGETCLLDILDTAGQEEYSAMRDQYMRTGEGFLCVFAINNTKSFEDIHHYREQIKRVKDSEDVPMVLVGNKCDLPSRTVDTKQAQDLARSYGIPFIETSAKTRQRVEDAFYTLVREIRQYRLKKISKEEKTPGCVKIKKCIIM
T2 sequence (Q96SW2 whole entry, stated change not applied): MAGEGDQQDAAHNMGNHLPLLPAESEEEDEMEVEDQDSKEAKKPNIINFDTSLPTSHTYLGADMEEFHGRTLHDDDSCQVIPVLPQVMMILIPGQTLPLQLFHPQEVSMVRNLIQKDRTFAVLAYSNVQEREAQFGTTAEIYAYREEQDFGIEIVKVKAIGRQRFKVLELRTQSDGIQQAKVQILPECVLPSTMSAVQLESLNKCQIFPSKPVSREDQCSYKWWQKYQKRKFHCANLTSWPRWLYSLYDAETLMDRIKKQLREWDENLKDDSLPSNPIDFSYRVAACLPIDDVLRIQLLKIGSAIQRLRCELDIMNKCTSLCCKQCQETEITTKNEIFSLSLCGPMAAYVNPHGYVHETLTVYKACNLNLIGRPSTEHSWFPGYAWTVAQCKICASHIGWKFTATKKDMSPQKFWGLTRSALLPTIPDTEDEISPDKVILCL
Protein cereblon/Proteasomal ubiquitin receptor ADRM1 (Homo sapiens), sequence (Q16186 whole entry, looked up): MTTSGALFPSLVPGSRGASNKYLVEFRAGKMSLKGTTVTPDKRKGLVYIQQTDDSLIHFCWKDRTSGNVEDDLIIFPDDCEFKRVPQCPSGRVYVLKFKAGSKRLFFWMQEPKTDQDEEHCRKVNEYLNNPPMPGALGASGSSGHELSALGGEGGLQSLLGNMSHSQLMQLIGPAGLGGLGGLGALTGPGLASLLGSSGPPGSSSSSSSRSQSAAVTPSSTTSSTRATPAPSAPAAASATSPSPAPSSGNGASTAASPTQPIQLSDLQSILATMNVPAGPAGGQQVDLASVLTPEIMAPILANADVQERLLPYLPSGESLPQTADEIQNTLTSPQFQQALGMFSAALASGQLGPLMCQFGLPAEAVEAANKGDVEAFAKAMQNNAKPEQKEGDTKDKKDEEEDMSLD
Protein cereblon/Proteasomal ubiquitin receptor ADRM1 (Homo sapiens), sequence (Q96SW2 whole entry, looked up): as the sequence (Q96SW2 whole entry, stated change not applied) above
Protein cereblon/Cyclin-dependent kinase 6 (Homo sapiens), sequence (Q00534 whole entry, looked up): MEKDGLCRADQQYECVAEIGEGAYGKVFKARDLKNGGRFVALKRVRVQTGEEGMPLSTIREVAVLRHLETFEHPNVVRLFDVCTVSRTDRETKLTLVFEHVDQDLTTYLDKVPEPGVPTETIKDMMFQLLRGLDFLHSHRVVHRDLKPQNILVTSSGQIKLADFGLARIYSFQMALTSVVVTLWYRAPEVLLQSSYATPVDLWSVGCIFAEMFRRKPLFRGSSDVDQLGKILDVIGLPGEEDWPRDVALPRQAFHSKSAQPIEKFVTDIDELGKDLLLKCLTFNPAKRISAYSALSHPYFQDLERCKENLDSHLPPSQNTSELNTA
Protein cereblon/Cyclin-dependent kinase 6 (Homo sapiens), sequence (Q96SW2 whole entry, looked up): as the sequence (Q96SW2 whole entry, stated change not applied) above
von Hippel-Lindau disease tumor suppressor/Tyrosine-protein kinase BTK (Homo sapiens, UniProt Q06187+P40337, C481S), sequence (P40337 whole entry): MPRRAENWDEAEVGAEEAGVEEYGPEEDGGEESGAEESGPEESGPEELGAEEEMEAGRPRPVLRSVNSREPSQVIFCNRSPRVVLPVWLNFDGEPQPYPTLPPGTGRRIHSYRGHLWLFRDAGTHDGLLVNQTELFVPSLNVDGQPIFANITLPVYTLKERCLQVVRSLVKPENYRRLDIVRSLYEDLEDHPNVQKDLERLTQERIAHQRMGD
von Hippel-Lindau disease tumor suppressor/Tyrosine-protein kinase BTK (Homo sapiens, UniProt Q06187+P40337, C481S), sequence (Q06187 2-659 C481S limits assumed): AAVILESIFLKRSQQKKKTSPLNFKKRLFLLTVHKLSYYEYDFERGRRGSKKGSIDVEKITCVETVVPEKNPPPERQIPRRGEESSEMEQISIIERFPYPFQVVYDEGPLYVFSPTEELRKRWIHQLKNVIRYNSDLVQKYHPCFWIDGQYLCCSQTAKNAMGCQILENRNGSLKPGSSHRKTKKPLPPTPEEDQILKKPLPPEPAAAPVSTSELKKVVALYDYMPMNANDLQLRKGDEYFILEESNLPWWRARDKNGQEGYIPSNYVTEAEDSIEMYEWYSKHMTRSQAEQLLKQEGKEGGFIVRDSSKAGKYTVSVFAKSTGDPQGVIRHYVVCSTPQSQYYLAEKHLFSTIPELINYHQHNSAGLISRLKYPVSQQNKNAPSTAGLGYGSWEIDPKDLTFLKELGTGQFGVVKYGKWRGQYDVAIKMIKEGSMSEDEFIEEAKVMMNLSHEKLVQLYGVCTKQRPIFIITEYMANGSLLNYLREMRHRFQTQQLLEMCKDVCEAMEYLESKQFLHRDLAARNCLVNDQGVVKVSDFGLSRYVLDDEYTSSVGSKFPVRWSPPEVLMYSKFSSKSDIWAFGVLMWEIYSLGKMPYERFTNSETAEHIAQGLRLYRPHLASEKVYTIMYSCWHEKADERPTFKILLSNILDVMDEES
Protein cereblon/Poly [ADP-ribose] polymerase 1 (Homo sapiens), sequence (P09874 whole entry, looked up): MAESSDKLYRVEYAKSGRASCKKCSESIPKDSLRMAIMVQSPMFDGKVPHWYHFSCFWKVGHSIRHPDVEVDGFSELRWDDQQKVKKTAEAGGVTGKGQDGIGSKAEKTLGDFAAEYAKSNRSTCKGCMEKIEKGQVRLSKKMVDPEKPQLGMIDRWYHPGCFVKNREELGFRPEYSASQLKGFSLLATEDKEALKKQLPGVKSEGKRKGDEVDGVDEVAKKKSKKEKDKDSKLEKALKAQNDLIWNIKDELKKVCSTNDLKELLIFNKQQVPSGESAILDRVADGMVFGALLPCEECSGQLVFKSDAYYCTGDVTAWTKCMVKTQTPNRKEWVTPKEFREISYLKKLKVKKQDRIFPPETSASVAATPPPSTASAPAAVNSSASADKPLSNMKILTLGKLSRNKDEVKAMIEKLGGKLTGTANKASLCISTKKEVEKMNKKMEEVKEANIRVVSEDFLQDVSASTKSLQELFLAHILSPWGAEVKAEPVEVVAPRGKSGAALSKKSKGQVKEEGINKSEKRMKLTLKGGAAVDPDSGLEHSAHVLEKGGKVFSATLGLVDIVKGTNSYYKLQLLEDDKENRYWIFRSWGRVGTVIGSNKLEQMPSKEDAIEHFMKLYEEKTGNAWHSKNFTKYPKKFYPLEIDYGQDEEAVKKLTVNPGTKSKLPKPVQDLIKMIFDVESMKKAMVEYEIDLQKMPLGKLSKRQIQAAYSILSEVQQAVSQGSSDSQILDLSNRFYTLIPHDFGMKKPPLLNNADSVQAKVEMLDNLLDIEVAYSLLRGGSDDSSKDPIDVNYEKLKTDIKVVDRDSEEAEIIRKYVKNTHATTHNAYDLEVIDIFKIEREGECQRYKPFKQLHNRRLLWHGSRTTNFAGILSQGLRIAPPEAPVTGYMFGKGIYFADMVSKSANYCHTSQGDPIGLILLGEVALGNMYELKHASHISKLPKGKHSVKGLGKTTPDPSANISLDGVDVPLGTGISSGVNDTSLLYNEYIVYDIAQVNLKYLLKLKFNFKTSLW
Protein cereblon/Poly [ADP-ribose] polymerase 1 (Homo sapiens), sequence (Q96SW2 whole entry, looked up): as the sequence (Q96SW2 whole entry, stated change not applied) above

Compound: CC(=O)c1c(C)c2cnc(Nc3ccc(N4CCN(C(=O)CCCCCNc5cccc6c5C(=O)N(C5CCC(=O)NC5=O)C6=O)CC4)cn3)nc2n(C2CCCC2)c1=O (configuration not stated)
Activity [4]: 75%
Activity [5]: 89%

Compound: COC(=O)C1=CC[C@@]23CC[C@@H]([C@@](C)(/C=C/C=C(\C)C(=O)NCCNc4cccc5c4C(=O)N(C4CCC(=O)NC4=O)C5=O)OC2=O)[C@@]3(OC(C)=O)CC1 (some centres not stated)
DC50 [6]: 6720 nM

Compound: Nc1ncnc2c1c(-c1ccc(Oc3ccccc3)cc1)nn2[C@@H]1CCCN(CCOCCOCC(=O)Nc2ccc3c(c2)C(=O)N(C2CCC(=O)NC2=O)C3=O)C1 (some centres not stated)
DC50 [7]: 14.6 nM
DC50 [8]: 14.9 nM

Compound: Cc1c(NC(=O)c2ccc(C(C)(C)C)cc2)cccc1-c1cn(C)c(=O)c(Nc2ccc(C(=O)N3CCN(CCCCCCNC(=O)CNc4cccc5c4C(=O)N(C4CCC(=O)NC4=O)C5=O)CC3)cc2)n1 (configuration not stated)
IC50 [14]: 5.1 nM

Compound: C=CC(=O)N1CCN(c2nc(NCCCN3CCN(CCCNc4cccc5c4C(=O)N(C4CCC(=O)NC4=O)C5=O)CC3)nc3c(F)c(-c4cc(O)cc5ccccc45)c(Cl)cc23)CC1 (configuration not stated)
DC50 [17]: 1200 nM
DC50 [18]: 6000 nM

Compound: NC(=O)c1c(-c2ccc(Oc3ccc(F)cc3F)cc2)nn([C@@H]2CCCN(C(=O)COCCCCCCNc3cccc4c3C(=O)N(C3CCC(=O)NC3=O)C4=O)C2)c1N (some centres not stated)
DC50 [19]: 5.9 nM

Further lines, results first:

IC50 [1]: 230 nM
IC50 [2]: 230 nM
IC50 [3]: 230 nM
Compound: C[C@H]1[C@H](C)CC[C@]2(C(=O)NCCCCOCCNc3cccc4c3C(=O)N(C3CCC(=O)NC3=O)C4=O)CC[C@]3(C)C(=CC[C@@H]4[C@@]5(C)CC[C@H](O)C(C)(C)C5CC[C@]43C)[C@H]12 (some centres not stated)

DC50 [9]: 1.9 nM
Compound: O=C(CCCCCCC(=O)N/N=C/c1ccc(OCCCC#Cc2cccc3c2CN(C2CCC(=O)NC2=O)C3=O)cc1)NO (configuration not stated)

Activity [10]: 80%
Compound: O=C1CCC(N2Cc3c(NCCCCCCCCCCCNC(=O)c4cc(Cc5n[nH]c(=O)c6ccccc56)ccc4F)cccc3C2=O)C(=O)N1 (configuration not stated)

Emax [11]: 90%
Kd [12]: 490 nM
Compound: CC(C)Nc1cc(-n2ccc3cc(C#N)cnc32)ccc1C(=O)N[C@H]1CC[C@H](C(=O)NCCOCCNC(=O)COc2cccc3c2C(=O)N(C2CCC(=O)NC2=O)C3=O)CC1 (some centres not stated)

Activity [13]: 95%
Compound: O=C1CCC(N2C(=O)c3cccc(NCCOCCOCCOCCC(=O)N[C@@H](Cc4ccccc4)C(=O)C4C/C(=C\c5ccc(Cl)c(Cl)c5)C(=O)/C(=C/c5ccc(Cl)c(Cl)c5)C4)c3C2=O)C(=O)N1 (some centres not stated)

Activity [15]: 81%
Compound: CN(CCCNC(=O)CNc1cccc2c1C(=O)N(C1CCC(=O)NC1=O)C2=O)C(C)(C)/C=C(\C#N)C(=O)N1CCC[C@@H](n2nc(-c3ccc(Oc4ccccc4)cc3)c3c(N)ncnc32)C1 (some centres not stated)

Emax [16]: 93%
Compound: O=C1CCC(N2C(=O)c3cccc(NCCOCCCCCCCCNCCNc4nonc4/C(=N/O)Nc4ccc(F)c(Br)c4)c3C2=O)C(=O)N1 (configuration not stated)

IC50 [20]: 0.032 nM
IC50 [21]: 0.062 nM
IC50 [22]: 0.0083 nM
Compound: Cc1nnc2n1-c1sc(C#Cc3cnn(CCCC#Cc4cccc5c4CN(C4CCC(=O)NC4=O)C5=O)c3)c(Cc3ccccc3)c1COC2 (configuration not stated)
